Assays:
[1] = test system: HEK293 cells cotransfected with the FOP control vector; assay: HEK293 FOP assay (control reporter with non-functional TCF elements); type: cell-based; conditions: 16 hours
Summary of the method: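 Stable HEK293 line carrying FOP control reporter (randomized non-functional TCF sites, with pcDNA3), Geneticin-selected, plated 24 h before assay. Stimulated with recombinant human Wnt-3a (2500-5 ng/ml) and compounds 50 μM–15 nM (3.16-fold steps) in CAFTY buffer pH 7.4 with 2 mM Ca2+, 0.01% BSA, run parallel to TOP line.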

TNKS1 = molecular target: T1, TNKS1 (Homo sapiens, UniProt O95271); assay: TNKS1 Assay B (auto-parsylation, [3H]-NAD+ SPA); type: biochemical; conditions: 6 nM TNKS1, auto-parsylation, over night at room temperature
T1 construct: purchased BPS Bioscience, San Diego, USA 80579 (TNKS1 Histone Ribosylation Assay Kit)
T1 sequence (O95271 1-1327): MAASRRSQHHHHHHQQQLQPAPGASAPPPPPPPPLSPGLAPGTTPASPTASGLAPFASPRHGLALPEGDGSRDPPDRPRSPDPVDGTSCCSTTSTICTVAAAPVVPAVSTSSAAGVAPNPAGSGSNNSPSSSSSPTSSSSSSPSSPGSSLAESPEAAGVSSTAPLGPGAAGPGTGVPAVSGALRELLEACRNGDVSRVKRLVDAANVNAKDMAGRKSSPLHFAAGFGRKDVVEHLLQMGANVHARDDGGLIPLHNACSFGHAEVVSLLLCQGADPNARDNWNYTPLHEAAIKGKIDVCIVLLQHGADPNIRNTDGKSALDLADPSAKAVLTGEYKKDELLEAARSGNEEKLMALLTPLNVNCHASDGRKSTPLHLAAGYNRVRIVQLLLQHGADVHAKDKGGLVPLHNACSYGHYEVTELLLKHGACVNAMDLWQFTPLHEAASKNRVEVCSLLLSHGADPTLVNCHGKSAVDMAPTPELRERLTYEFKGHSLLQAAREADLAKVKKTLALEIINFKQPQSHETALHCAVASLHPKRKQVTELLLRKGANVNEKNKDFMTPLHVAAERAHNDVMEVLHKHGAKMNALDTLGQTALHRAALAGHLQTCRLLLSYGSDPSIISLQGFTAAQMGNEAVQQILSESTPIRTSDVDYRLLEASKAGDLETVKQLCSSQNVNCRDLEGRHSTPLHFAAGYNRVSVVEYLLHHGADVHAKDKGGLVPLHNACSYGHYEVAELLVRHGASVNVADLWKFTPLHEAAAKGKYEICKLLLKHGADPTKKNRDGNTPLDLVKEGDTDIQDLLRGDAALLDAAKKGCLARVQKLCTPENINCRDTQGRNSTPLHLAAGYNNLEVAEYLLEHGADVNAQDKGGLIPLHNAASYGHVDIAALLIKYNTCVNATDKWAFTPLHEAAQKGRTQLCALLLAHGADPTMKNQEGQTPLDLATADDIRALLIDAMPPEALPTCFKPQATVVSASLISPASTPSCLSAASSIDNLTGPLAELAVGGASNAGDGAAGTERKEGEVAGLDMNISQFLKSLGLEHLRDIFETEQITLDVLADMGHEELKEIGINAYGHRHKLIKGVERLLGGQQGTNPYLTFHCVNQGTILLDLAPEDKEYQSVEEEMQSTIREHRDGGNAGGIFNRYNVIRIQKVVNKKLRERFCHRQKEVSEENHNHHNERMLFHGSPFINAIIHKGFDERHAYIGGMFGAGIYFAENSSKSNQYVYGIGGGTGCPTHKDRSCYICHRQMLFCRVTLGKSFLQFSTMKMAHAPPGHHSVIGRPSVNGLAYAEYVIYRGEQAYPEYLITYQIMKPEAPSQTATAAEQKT
Method: The potency of selected compounds according to the invention was assessed applying a modified in vitro inhibition assay. Here, the TNKS1 catalyzed NAD^+-dependent ribosylation of the enzyme itself (auto-parsylation) was detected using [^3H]-NAD^+ as substrate and applying the scintillation proximity assay (SPA) method to detect tritium-labeled, parsylated TNKS1. The intensity of the readout signal is proportional to the incorporated [^3H]-NAD^+. Inhibition of TNKS1 leads to a decreased incorporation of [^3H]-NAD^+ and consequently to a lower readout signal intensity. The concentration of a test compound which inhibits the enzyme activity by 50% (corresponds to half of the normed readout signal intensity) is reported as IC50.
Protocol Auto-Parsylation Assay
The assay was conducted in a 96 well MTP format with the identical TNKS1 enzyme sample and NAD^+ sample as in the histone ribosylation assay with the following modifications: TNKS1 enzyme sample was diluted with a modified assay buffer (50 mM MES pH 7.0, 1 mM DTT, 0.01% Triton X-100) to a final concentration of 6 nM TNKS1 and 10×NAD^+ solution was diluted with the modified assay buffer (s. above) to a final 0.445×NAD^+ solution doped with 100 Bq/μl [^3H]-NAD^+[Catalog #NET443H050UC, Perkin Elmer, Waltham, Mass., USA]. Substrate solution (10 μl) was incubated with different test compound concentrations (2.5 ul in 10% DMSO in modified assay buffer) or control (2.5 ul 10% DMSO in modified assay buffer only) and enzyme (10 μl) over night at room temperature. Incorporated tritium was measured after addition of 50 μl SPA beads (1 mg/ml) [Catalog #RPNQ0095 20 mg/ml, Perkin Elmer, Waltham, Mass., USA; diluted 1:10 with Dulbecco's phosphate buffered saline, PBS Catalog #D8537, Sigma-Aldrich, Steinheim, Germany] and detection of the photon emission with a beta count plate reader [Wallac MicroBeta®, Perkin Elmer, Waltham, Mass., USA].

| IC50 (TNKS1) [nM] | Structure (SMILES) | IC50 ([1]; Homo sapiens) [nM] | IC50 [1] [nM] |
| --- | --- | --- | --- |
| 400 | O=C(NC12CCC(C(=O)Nc3ccc(F)cc3Cl)(CC1)CC2)c1cnc2cccnn12 [Example 121, N-{4-[(2-chloro-4-fluorophenyl)carbamoyl]bicyclo[2.2.2]oct-1-yl}imidazo[1,2-b]pyridazine-3-carboxamide] | ≥ 50000 |  |
| 24 | CNC(=O)c1nc[nH]c1C(=O)N[C@H]1CC[C@H](C(=O)Nc2ccc(F)cc2Br)CC1 [Example 7, N^5-{trans-4-[(2-bromo-4-fluorophenyl)carbamoyl]cyclohexyl}-N^4-methyl-1H-imidazole-4,5-dicarboxamide] | ≥ 50000 |  |
| 320 | Cc1cc(C)n2ncc(C(=O)NC34CCC(C(=O)Nc5c(F)cc(F)cc5Cl)(CC3)CC4)c2n1 [Example 127, N-{4-[(2-chloro-4,6-difluorophenyl)carbamoyl]bicyclo[2.2.2]oct-1-yl}-5,7-dimethylpyrazolo[1,5-a]pyrimidine-3-carboxamide] | ≥ 50000 |  |
| 11 | CCNC(=O)c1[nH]cnc1C(=O)N[C@H]1CC[C@@]2(CCN(c3ccc(F)cc3Cl)C2=O)CC1 [Example 141, N^4-[(trans)-2-(2-chloro-4-fluorophenyl)-1-oxo-2-azaspiro[4.5]dec-8-yl]-N^5-ethyl-1H-imidazole-4,5-dicarboxamide] | ≥ 50000 |  |
| 12 | O=C(NC1CC1)c1nc[nH]c1C(=O)N[C@H]1CC[C@@]2(CCN(c3ccc(F)cc3Cl)C2=O)CC1 [Example 165, N^5-[(trans)-2-(2-chloro-4-fluorophenyl)-1-oxo-2-azaspiro[4.5]dec-8-yl]-N^4-cyclopropyl-1H-imidazole-4,5-dicarboxamide] | 35000 |  |
| 160 | CNC(=O)c1[nH]cnc1C(=O)NC12CCC(C(=O)Nc3ccc(F)cc3Cl)(CC1)CC2 [Example 115, N^4-{4-[(2-chloro-4-fluorophenyl)carbamoyl]bicyclo[2.2.2]oct-1-yl}-N^5-methyl-1H-imidazole-4,5-dicarboxamide] | ≥ 50000 |  |
| 93 | CNC(=O)c1nc[nH]c1C(=O)N[C@H]1CC[C@H](C(=O)Nc2cc(C(F)(F)F)ccc2Cl)CC1 [Example 142, N^5-(trans-4-{[2-chloro-5-(trifluoromethyl)phenyl]carbamoyl}cyclohexyl)-N^4-methyl-1H-imidazole-4,5-dicarboxamide] | 41000 |  |
| 8 | CC1CCN(CCNC(=O)c2nc[nH]c2C(=O)N[C@H]2CC[C@@]3(CCN(c4ccc(F)cc4Cl)C3=O)CC2)CC1 [Example 160, N^5-[(trans)-2-(2-chloro-4-fluorophenyl)-1-oxo-2-azaspiro[4.5]dec-8-yl]-N^4-[2-(4-methylpiperidin-1-yl)ethyl]-1H-imidazole-4,5-dicarboxamide] | ≥ 50000 |  |
| 11 | Cc1cc(C)n2ncc(C(=O)N[C@H]3CC[C@@]4(CCN(c5ccc(F)cc5Cl)C4=O)CC3)c2n1 [Example 139, N-[(trans)-2-(2-chloro-4-fluorophenyl)-1-oxo-2-azaspiro[4.5]dec-8-yl]-5,7-dimethylpyrazolo[1,5-a]pyrimidine-3-carboxamide] | ≥ 50000 |  |
| 22 | O=C(N[C@H]1CC[C@@]2(CCN(c3ccc(F)cc3Cl)C2=O)CC1)c1cnc2cccnn12 [Example 138, N-[(trans)-2-(2-chloro-4-fluorophenyl)-1-oxo-2-azaspiro[4.5]dec-8-yl]imidazo[1,2-b]pyridazine-3-carboxamide] | ≥ 50000 |  |
| 4100 | CNC(=O)c1nc[nH]c1C(=O)N[C@H]1CC[C@H](C(=O)Nc2ccc(F)cc2)CC1 [Example 8, N^5-{trans-4-[(4-fluorophenyl)carbamoyl]cyclohexyl}-N^4-methyl-1H-imidazole-4,5-dicarboxamide] | ≥ 50000 |  |
| 860 | CC(O)CNc1ccc2ncc(C(=O)N[C@H]3CC[C@H](C(=O)Nc4ccc(F)cc4Cl)CC3)n2n1 (stereo partly drawn) [Example 114, N-{trans-4-[(2-chloro-4-fluorophenyl)carbamoyl]cyclohexyl}-6-[(2-hydroxypropyl)amino]imidazo[1,2-b]pyridazine-3-carboxamide] | ≥ 50000 |  |
| 290 | O=C(N[C@H]1CC[C@H](C(=O)Nc2cnc(C(F)(F)F)cc2Cl)CC1)c1cnn2cccnc12 [Example 149, N-(trans-4-{[4-chloro-6-(trifluoromethyl)pyridin-3-yl]carbamoyl}cyclohexyl)pyrazolo[1,5-a]pyrimidine-3-carboxamide] | ≥ 50000 |  |
| 190 | O=C(N[C@H]1CC[C@H](C(=O)Nc2ccncc2Cl)CC1)c1cnn2cccnc12 [Example 105, N-{trans-4-[(3-chloropyridin-4-yl)carbamoyl]cyclohexyl}pyrazolo[1,5-a]pyrimidine-3-carboxamide] | ≥ 50000 |  |
| 170 | Cc1cc(NC(=O)[C@H]2CC[C@H](NC(=O)c3cnn4cccnc34)CC2)c(Cl)cc1F [Example 150, N-{trans-4-[(2-chloro-4-fluoro-5-methylphenyl)carbamoyl]cyclohexyl}pyrazolo[1,5-a]pyrimidine-3-carboxamide] | ≥ 50000 |  |
| 110 | Cc1nc2c(C(=O)N[C@H]3CC[C@H](C(=O)Nc4ccc(F)cc4Cl)CC3)cnn2c2c1CCC2 [Example 113, N-{trans-4-[(2-chloro-4-fluorophenyl)carbamoyl]cyclohexyl}-5-methyl-7,8-dihydro-6H-cyclopenta[e]pyrazolo[1,5-a]pyrimidine-3-carboxamide] | ≥ 50000 |  |
| 150 | CNC(=O)c1nc[nH]c1C(=O)N[C@H]1CC[C@H](C(=O)Nc2ncncc2Cl)CC1 [Example 147, N^5-{trans-4-[(5-chloropyrimidin-4-yl)carbamoyl]cyclohexyl}-N^4-methyl-1H-imidazole-4,5-dicarboxamide] | ≥ 50000 |  |
| 310 | COCc1cc(C)n2ncc(C(=O)N[C@H]3CC[C@H](C(=O)Nc4ccc(F)cc4Cl)CC3)c2n1 [Example 110, N-{trans-4-[(2-chloro-4-fluorophenyl)carbamoyl]cyclohexyl}-5-(methoxymethyl)-7-methylpyrazolo[1,5-a]pyrimidine-3-carboxamide] | ≥ 50000 |  |

| Structure (SMILES) | IC50 (TNKS1) [nM] | IC50 ([1]; Homo sapiens) [nM] | IC50 [1] [nM] |
| --- | --- | --- | --- |
| CNC(=O)c1[nH]cnc1C(=O)NC1CCC(C(=O)Nc2ccc(F)cc2Cl)CC1OC (stereo not drawn) [Example 37, N^4-{(1α,2β,4β)-4-[(2-chloro-4-fluorophenyl)carbamoyl]-2-methoxycyclohexyl}-N^5-methyl-1H-imidazole-4,5-dicarboxamide] | > 10000 |  | ≥ 50000 |

From patent US20180148418A1, “AMIDO-SUBSTITUTED CYCLOHEXANE DERIVATIVES” (Bayer Pharma Aktiengesellschaft, priority 2015, published 2018)
